Data from patent US20200010910A1, “Cytotoxic Chemotherapy-Based Predictive Assays for Acute Myeloid Leukemia” (The Regents of The University of California, priority 2017, published 2020).
“And” between values parts separate entries of the source, which are not always exact repeats. Identical values can stand only once.

Key:
[1] = test system: A549 tumor xenografts; test: DNA repair: monoadducts remaining in excised xenograft tumor; format: in vivo, mice; settings: tumor excised 4 h after microdose, 8 hours in carboplatin-free medium
Description: (§1) DNA repair rates in the xenograft tumor cells were also observed to correlate with carboplatin resistance. This is exemplified by the measurement of DNA repair in the A549 and H232A tumor xenografts (FIG. 10D). Four hours after a microdose was administered to three mice each with A549 and H232A tumor xenografts, the animals were sacrificed and tumors were excised. Tissue from each tumor was minced with a scalpel and washed with PBS. Half of the sample was frozen immediately (control) and half was incubated in cell culture medium (no carboplatin) for 8 hours prior to storage. DNA was extracted from the two sets of experiments and analyzed for carboplatin-DNA monoadducts. The resistant A549 cell line had 4±3% of the carboplatin-DNA monoadducts remaining compared to the control, whereas 56±8% of the monoadducts persisted for the drug sensitive H23 cells.

[2] = test system: H232A tumor xenografts; test: as above; format: in vivo, mice; settings: H23; tumor excised 4 h after microdose, 8 hours in carboplatin-free medium
Description: as §1

[3] = patients; cited from earlier work
[4] = test system: PBMC; test: microdose-induced carboplatin-DNA monoadducts in patients; format: in vivo, human; settings: for 4 h adducts PBMC / 24 h adducts PBMC: microdose; for lowest DNA monoadduct level observed: first nineteen patients, microdose 1% of therapeutic dose
Description: Based upon the previous mouse studies that identified a minimal microdose for accurate AMS analysis of carboplatin monoadducts (1% of therapeutic carboplatin containing 50,000 DPM/gm of mouse body weight), the first in-human evaluation of microdose [^14C]carboplatin was conducted at this same equivalent formulation. The mouse radioactive dose (50,000 DPM/gm), adjusted for body surface area differences between mouse and humans, is equivalent to a dose of 1.0×10^7 DPM/kg of human body weight. The carboplatin dose for human chemotherapy is personalized to a patient's size and kidney function and is calculated using the Calvert formula with an AUC of 6 (Calvert, A. H., et al. “Carboplatin dosage: prospective evaluation of a simple formula based on renal function.” Journal of Clinical Oncology 7.11 (1989): 1748-1756). […] After blood collection, the BD Vacutainer CPT™ tubes were gently inverted several times to ensure mixing with heparin anticoagulant. The tubes were immediately placed on ice or stored at 4° C. and_then processed within 2 hours of collection to separate plasma and PBMC. For processing, the blood filled BD Vacutainer CPT™ tubes were centrifuged at room temperature in a horizontal rotor for 25 minutes at 1600×g. The top plasma layer was transferred to separate tubes and stored at or below −70° C. After most of the plasma was removed from the CPT tube, PBMC were transferred to another tube and washed three times with ice-cold phosphate-buffered solution (PBS). After pelleting the cells and removing the supernatant, the PBMC's were stored frozen at −80° C. until being processed to isolate DNA for determination of the carboplatin-DNA monoadduct frequency. Tumor samples were collected by biopsy or resection approximately 24 hours after administration of the [^14C]carboplatin microdose. These tumor specimens were placed in ice immediately after being obtained, washed three times with ice-cold PBS, and stored at or below −20° C. within 2 hours of collection. These frozen tumor samples were then processed at a later time to isolate DNA for determination of the carboplatin-DNA monoadduct frequency. To isolate DNA, tumor tissue was placed on ice in a sterile petri dish and minced with a sterile scalpel for approximately 30-90 sec per sample. Approximately 20-100 mg of tissue was then processed using the modified Wizard DNA isolation protocol as described previously.
Two lung and three bladder cancer patients were monitored post carboplatin therapeutic treatment to determine therapeutic outcome. Each patient was given a microdose of [^14C]carboplatin by IV injection. The microdose was 1% of therapeutic based upon Calvert calculation and formulated with [^14C]carboplatin at 1.0×10^7 DPM/kg of body weight. At time points of 2, 4, 8 and 24 hours, blood samples were taken from which PBMCs were isolated determination of carboplatin-DNA monoadduct frequency, and expressed as carboplatin-DNA monoadducts per 10^8 nucleotides (FIG. 13).
As we have shown in cell culture and mouse tumor xenograph experiments, the carboplatin-DNA monoadduct frequency is proportional to the dose and time integrated exposure to carboplatin. In this example we establish the useful range of carboplatin-DNA monoadduct frequencies in cancer patients receiving 1% of their therapeutic dose of carboplatin at a fixed time after microdose exposure. […] DNA from PBMC and tumor tissue was extracted and analyzed by AMS for carboplatin-DNA monoadduct frequency. […] Tumor carboplatin-DNA monoadduct frequencies ranged from 0.3 and 42.5 adducts per 10^8 nucleotides.

[5] = human plasma pharmacokinetics of [14C]carboplatin; format: in vivo
Description: Two of the bladder cancer patients received two doses of [^14C]carboplatin, including the initial diagnostic microdose and a second microdose at the time of full therapeutic dose. This allowed us to compare the pharmacokinetics of carboplatin in plasma after both microdosing and therapeutic dosing (FIG. 11A). […] Therefore, microdosing and therapeutic dosing yield similar carboplatin pharmacokinetics in human patients.
The pharmacokinetics of carboplatin administered as a microdose was assessed in four patients (two with bladder cancer and two with NSLC) for the purpose of comparing interpatient variability and establishing the optimum time point for tumor biopsy sample acquisition.

[6] = Bladder cancer, individual patients

N.N.O=C([O-])C1(C(=O)[O-])CCC1.[Pt+2] [carboplatin]
carboplatin-DNA monoadducts remaining compared to the control [1]: 4±3% | carboplatin-DNA monoadducts remaining compared to the control [2]: 56±8% | in vivo carboplatin half-life in patients [3]: 1.3 to 6 h | 4 h adducts PBMC [4, 6]: 1.113 per 10^8 nt and 0.265 per 10^8 nt and 0.545 per 10^8 nt and 0.184 per 10^8 nt and 0.193 per 10^8 nt and 1.004 per 10^8 nt and 0.600 per 10^8 nt and 1.399 per 10^8 nt and 0.599 per 10^8 nt and 0.239 per 10^8 nt and 0.421 per 10^8 nt | 24 h adducts PBMC [4, 6]: 0.443 per 10^8 nt and 0.081 per 10^8 nt and 0.930 per 10^8 nt and 0.154 per 10^8 nt and 0.283 per 10^8 nt and 0.968 per 10^8 nt and 0.499 per 10^8 nt and 0.485 per 10^8 nt and 0.329 per 10^8 nt and 0.978 per 10^8 nt | 4 h adducts PBMC ([4]; Hodgkin patient): 0.861 per 10^8 nt | 24 h adducts PBMC ([4]; Hodgkin patient): 0.472 per 10^8 nt | 4 h adducts PBMC ([4]; NSCLC, individual patients): 0.447 per 10^8 nt and 0.662 per 10^8 nt and 0.386 per 10^8 nt and 0.587 per 10^8 nt and 0.234 per 10^8 nt and 2.214 per 10^8 nt | 24 h adducts PBMC ([4]; NSCLC, individual patients): 0.837 per 10^8 nt and 1.3 per 10^8 nt and 0.454 per 10^8 nt and 0.942 per 10^8 nt and 0.342 per 10^8 nt and 0.232 per 10^8 nt | lowest DNA monoadduct level observed [4]: ~3.2 monoadducts per cell | lowest DNA monoadduct level observed ([4]; 1.0×10^7 DPM/kg): 0.05 adducts per 10^8 nucleotides | plasma half-life ([5]; microdose, four patients): a few hours | time to essential clearance from the blood ([5]; microdose, four patients): ≤ 24 h | difference in plasma elimination kinetics between therapeutic and microdoses ([5]; two bladder cancer patients, 24 h): less than 2 fold
